Article PMC6968641, “N-monoarylacetothioureas as potent urease inhibitors: synthesis, SAR, and biological evaluation” (Journal of Enzyme Inhibition and Medicinal Chemistry, 2019)
≈ marks a conversion by molar mass, not a printed value. Read-outs that look alike come from different tables or passages of the source.

Tests used:
H. pylori urease = molecular target: T1, H. pylori urease (Helicobacter pylori, UniProt P69996); assay: Urease inhibition, extracted H. pylori urease (indophenol method); format: biochemical; settings: for IC50: IC50 Extracted urease, extracted H. pylori urease
T1 construct: endogenous in cells; host or cells: H. pylori ATCC 43504; sonicated, supernatant desalted on Sephadex G-25 (crude extract)
T1 sequence (P14916 whole entry): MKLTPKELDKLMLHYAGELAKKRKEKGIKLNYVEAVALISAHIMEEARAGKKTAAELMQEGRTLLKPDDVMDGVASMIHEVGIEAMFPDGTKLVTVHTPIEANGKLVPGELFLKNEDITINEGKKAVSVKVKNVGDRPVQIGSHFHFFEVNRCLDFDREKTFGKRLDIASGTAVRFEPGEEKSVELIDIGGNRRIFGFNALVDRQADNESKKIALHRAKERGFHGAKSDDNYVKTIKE
T1 sequence (P69996 whole entry): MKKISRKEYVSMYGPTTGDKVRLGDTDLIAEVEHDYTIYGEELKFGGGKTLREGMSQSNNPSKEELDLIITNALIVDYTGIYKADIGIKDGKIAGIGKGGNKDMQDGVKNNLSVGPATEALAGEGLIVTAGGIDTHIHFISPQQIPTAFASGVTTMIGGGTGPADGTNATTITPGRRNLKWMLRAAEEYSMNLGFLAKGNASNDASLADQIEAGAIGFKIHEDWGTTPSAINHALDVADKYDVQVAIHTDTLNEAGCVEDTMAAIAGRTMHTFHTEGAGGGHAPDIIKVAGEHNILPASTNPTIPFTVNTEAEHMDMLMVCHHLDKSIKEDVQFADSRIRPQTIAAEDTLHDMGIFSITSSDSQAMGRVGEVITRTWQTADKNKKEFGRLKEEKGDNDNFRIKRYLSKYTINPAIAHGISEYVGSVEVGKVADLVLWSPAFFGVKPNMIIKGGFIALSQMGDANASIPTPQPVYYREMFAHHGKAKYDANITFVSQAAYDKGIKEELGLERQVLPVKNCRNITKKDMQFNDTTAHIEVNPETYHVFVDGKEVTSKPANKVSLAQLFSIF
Method: For urease inhibition assays, 50 mL broth cultures (2.0 × 10^8 CFU/mL) were centrifuged (5000×g, 4 °C) to collect the bacteria, and after washing twice with phosphate-buffered saline (pH 7.4), the H. pylori precipitation was stored at –80 °C for 8 h, and then was returned to room temperature, and after addition of 3 mL of distilled water and protease inhibitors, sonication was performed for 60 s. Following centrifugation (15,000×g, 4 °C), the supernatant was desalted through Sephadex G-25 column (PD-10 columns, Amersham Pharmacia Biotech, Uppsala, Sweden). The resultant crude urease solution was added to an equal volume of glycerol and stored at 4 °C until use in the experiment.
Urease activity was determined in the 96-well assay plate by measuring ammonia production using the indophenol method as described by Weatherburn[20]. Briefly, to each well, 50 µL of urea (10 mM) in phosphate buffer solution was added in a mixture of 25 µL (10 U) of H. pylori urease and 25 µL of the test compound, which was incubated at 37 °C for 0.5 h. Fifty µL of phenol reagent (containing 127 mM phenol and 0.168 mM sodium nitroprusside) and 50 µL of alkali reagent (containing 125 mM NaOH and 0.168 mM NaOCl) were added in turn. The resulted mixture was incubated at 37 °C for another 0.5 h for colouration developing. The increasing absorbance was measured at 630 nm after 50 min using a microplate reader (Molecular Devices, San Jose, CA). Percentage inhibitions were calculated from the following formula (Equation (1)). Experiments were performed in triplicate and AHA was used as reference drug, and the IC50 value was determined as the concentration of compound that give 50% inhibition of maximal activity. As for the urease assay of intact cells, 25 µL (10 U) of H. pylori urease was replaced by 25 µL of cell suspension (4.0 × 10^7 CFU/mL).

[1] = molecular target: T2, urease in intact H. pylori cell (Helicobacter pylori, UniProt P69996); assay: Urease inhibition in intact H. pylori cell (indophenol method); format: cell-based
T2 construct: H. pylori urease was replaced by 25 µL of cell suspension (4.0 × 10^7 CFU/mL); endogenous in cells; host or cells: intact H. pylori ATCC 43504 cells
T2 sequence (P69996 whole entry): as above
T2 sequence (P14916 whole entry, further chain): as the sequence (P14916 whole entry) above

Jack bean urease [2] = molecular target: T3, Jack bean urease (Canavalia ensiformis, UniProt P07374); assay: Ligand affinity by surface plasmon resonance (SPR); format: binding; settings: for kon: pH 7.4; for koff: pH 7.4, SPR, immobilised urease, PBS pH 7.4
T3 construct: purchased
T3 sequence (P07374 whole entry, looked up): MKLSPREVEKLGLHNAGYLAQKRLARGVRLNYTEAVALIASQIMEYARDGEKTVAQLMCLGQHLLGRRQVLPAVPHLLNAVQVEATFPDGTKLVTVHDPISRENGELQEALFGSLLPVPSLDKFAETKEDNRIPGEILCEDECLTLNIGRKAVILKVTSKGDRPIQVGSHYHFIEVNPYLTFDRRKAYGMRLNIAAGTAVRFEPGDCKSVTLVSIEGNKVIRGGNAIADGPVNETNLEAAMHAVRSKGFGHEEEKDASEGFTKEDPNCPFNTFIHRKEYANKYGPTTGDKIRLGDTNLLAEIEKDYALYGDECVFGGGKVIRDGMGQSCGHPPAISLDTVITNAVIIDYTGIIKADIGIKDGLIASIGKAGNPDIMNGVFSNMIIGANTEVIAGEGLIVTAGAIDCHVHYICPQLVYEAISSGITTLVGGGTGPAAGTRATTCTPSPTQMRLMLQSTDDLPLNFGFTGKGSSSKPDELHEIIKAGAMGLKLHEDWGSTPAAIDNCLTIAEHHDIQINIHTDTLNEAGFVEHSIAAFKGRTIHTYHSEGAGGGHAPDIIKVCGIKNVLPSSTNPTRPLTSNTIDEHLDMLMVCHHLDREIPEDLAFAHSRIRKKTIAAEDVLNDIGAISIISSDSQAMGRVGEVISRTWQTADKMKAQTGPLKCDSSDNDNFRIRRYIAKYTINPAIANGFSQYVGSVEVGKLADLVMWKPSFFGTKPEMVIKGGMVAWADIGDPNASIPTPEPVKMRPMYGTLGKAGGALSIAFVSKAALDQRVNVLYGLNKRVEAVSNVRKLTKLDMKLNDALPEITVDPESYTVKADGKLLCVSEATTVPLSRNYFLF
Method: The binding kinetics of selected compounds were assayed via surface plasmon resonance (SPR) using an OPEN SPR instrument (Nicoya Lifesciences, Kitchener, Canada). First, urease dissolved (50 µg/mL) in PBS buffer (1 mM KH2PO4, 155 mM NaCl, 3 mM Na2HPO4-12H2O, pH 7.4), was immobilised to a CM5 chip using a standard amine coupling procedure. Then, SPR measurements were carried out in PBS, and stock solutions were diluted in the same buffer. Data were collected with OpenSPR control software. Experiments were performed by monitoring the refractive index changes as a function of time under constant flow rate of 20 µL/min. The relative amount of inhibitor bound to the urease was determined by measuring the net increase in refractive index over time compared to control running buffer. There is an inline subtraction of reference surface during the run. This change is usually reported in response units (RU). Sensograms were processed and analysed using TraceDrawer software. The binding curves were fit to determine the equilibrium dissociation constant (KD).
In the present paper, the pure Jack bean urease from commercial was used for this assay because of non-availability of pure H. pylori urease. […] For efficient and tight ligand binding, the rate constant koff is of particular interest, because koff has a potential to differentiate indistinguishable compounds with similar affinities.

Jack bean urease [3] = molecular target: T3, Jack bean urease; assay: Enzyme kinetic study (indophenol method); format: biochemical; settings: for Type of inhibition: Jack bean urease; for Ki': dissociation constant of urease-urea-inhibitor complex
Method: Based on the indophenol method, the velocity of ammonia production (V) was measured in the presence of concentration gradients of urea ([S]) for every specific concentration of selected compounds ([I]). Nonlinear fitting curves to data of V and [S] were used to determine the type of enzyme inhibition based on the general kinetics equation (Equation (1)). Subsequently, the resulted fitting constants ( Km/Vmax(1+[I]/Ki) or 1/Vmax(1+[I]/Ki′) ) and [I] were linearly fitted to give kinetic parameters Ki and Ki', respectively. The experimental assay was performed against a pure urease (Jack bean urease) for the consideration of precision. (1) V=Vmax[S]/Km(1+[I]/Ki)+(1+[I]/K^′i)[S]
Mazzei et al. confirmed that urease shared the mechanism of catalysis and inhibition regardless of the biological sources[27]^,[28]. For excluding the possible interference, a pure urease (Jack bean urease) was therefore used for kinetic assays. As an example, Figure 2 describes the preincubation-time dependence of urease inhibition by b19. The suppressed urease activity maintained at relatively constant values with the increasing preincubation time under different concentrations of b19, resulting in nearly equal IC50 values.
Similarly, kinetic parameters ( Ki and Ki' ) and inhibition types of other compounds were also determined and are shown in Table 3.

H. pylori = assay: Minimum inhibitory concentration, broth microdilution (CLSI); format: cell-based, Helicobacter pylori (ATCC 43504); settings: Helicobacter pylori
Method: H. pylori (ATCC 43504; […] The minimum inhibitory concentration (MIC) values were determined using the broth microdilution protocol according to the methods of the Clinical and Laboratory Standards Institute (CLSI)[21].

[4] = Cytotoxicity MTT assay, L-02; format: cell-based; settings: human, L-02 cells (normal hepatic cell line), 25 μg/mL
Method: (§1) The stock solutions of the selected compounds (250 µg/mL, in PBS) were prepared in medium. L-02 cells and P69 cells were grown in medium (90% RPMI-1640 medium, 10% foetal bovine serum, 1% penicillin/streptomycin) and maintained at 37 °C in a humidified atmosphere containing 5% CO2, respectively. Cells were seeded in 96-well cell culture plates. On the day when seeding, the cells were exposed to 250 µg/mL of compounds and further cultured for 72 h at 37 °C. Cell proliferation was then determined using the thiazolyl blue tetrazolium bromide (MTT) assay.

[5] = Cytotoxicity MTT assay, P69; format: cell-based; settings: human, P69 cells (normal prostate cell line), 25 μg/mL
Method: as §1

Structure (SMILES) | IC50 (H. pylori urease) | melting point | also measured
NC(=S)NC(=O)Cc1ccccc1Br [b15] | 51.1 ± 4.4 µM | 179 to 179.5 °C | 
NC(=S)NC(=O)Cc1cccc(C(F)(F)F)c1 [b9] | 136 ± 7 µM | 204.3 to 205.8 °C | 
NC(=S)NC(=O)Cc1ccc(O)c(O)c1 [b29] | 18.4 ± 1.6 µM | 153.5 to 155 °C | IC50 [1]: 143 ± 6 µM; Kd (Jack bean urease [2]): 0.783 ± 0.0213 µM; kon (Jack bean urease [2]): 19800 M⁻¹ s⁻¹; koff (Jack bean urease [2]): 0.0155 s⁻¹; Ki (Jack bean urease [3]): 8.21 µM; Type of inhibition (Jack bean urease [3]): Reversible; Ki' (Jack bean urease [3]): 21.5 µM
NC(=S)NC(=O)Cc1ccccc1[N+](=O)[O-] [b20] | 183 ± 12 µM | 177.6 to 178.4 °C | 
NC(=S)NC(=O)Cc1ccccc1F [b6] | 41.9 ± 2.5 µM | 157.2 to 159 °C | 
NC(=S)NC(=O)Cc1ccc(-c2ccccc2)cc1 [b26] | 279 ± 16 µM | 187.3 to 189.6 °C | 
NC(=S)NC(=O)Cc1cccc(Cl)c1 [b7] | 63.6 ± 5.1 µM | 136.6 to 137.4 °C | fold decrease in potency relative to b19, extracted urease (H. pylori urease; ratio of IC50 values vs b19): 397 fold
NC(=S)NC(=O)Cc1ccc2c(c1)OCO2 [b28] | 98 ± 5 µM | 153.5 to 155 °C | 
NC(=S)NC(=O)Cc1cccc(O)c1 [b4] | 16.3 ± 0.3 µM | 160.3 to 161.5 °C | IC50 [1]: 108 ± 6.1 µM; MIC (H. pylori; pH=4.0, read-out: MIC pH=4.0): 64 µM (≈ 13.5 µg/mL); MIC (H. pylori; pH=7.0, read-out: MIC pH=7.0): > 64 µM; Kd (Jack bean urease [2]): 0.644 ± 0.0092 µM; kon (Jack bean urease [2]): 60800 M⁻¹ s⁻¹; koff (Jack bean urease [2]): 0.0389 s⁻¹; Ki (Jack bean urease [3]): 4.34 µM; Type of inhibition (Jack bean urease [3]): Reversible; Ki' (Jack bean urease [3]): 8.52 µM; viability at 72 h, 25 µg/mL [4]: 93.7%; viability at 72 h, 25 µg/mL [5]: 88.1%
NC(=S)NC(=O)Cc1ccc2ccccc2c1 [b24] |  | 202.6 to 204.4 °C | 
NC(=S)NC(=O)Cc1ccc(Br)cc1 [b12] | 22.9 ± 0.4 µM | 174.9 to 176.2 °C | IC50 [1]: 189 ± 18 µM; viability at 72 h, 25 µg/mL [4]: 91.5%; viability at 72 h, 25 µg/mL [5]: 89.4%
NC(=S)NC(=O)Cc1cccc(F)c1 [b14] | 50.3 ± 3.5 µM | 126 to 127.4 °C | 
NC(=S)NC(=O)Cc1cccc2ccccc12 [b27] |  | 195.5 to 197.9 °C | 
COc1cccc(CC(=O)NC(N)=S)c1 [b5] | 75.8 ± 5.7 µM | 184.5 to 186.1 °C | 
